# Assay results from ChEMBL document CHEMBL3046295, “Quantitative structure activity relationship (QSAR) studies of a series of 2,5-disubstituted-1,3,4-oxadiazole derivatives as biologically potential compounds” (2011).
# Experiments:
# [1] = system: Escherichia coli; assay: Antibacterial activity against Escherichia coli; format: functional; conditions: for MIC: Escherichia coli
# [2] = system: Staphylococcus aureus; assay: Antibacterial activity against Staphylococcus aureus; format: functional; conditions: for MIC: Staphylococcus aureus
SMILES,-logMIC [1],MIC [1],-logMIC [2],MIC [2]
O=C(CSc1nnc(Cn2nnc3ccccc32)o1)Nc1ccc(Cl)cc1,6.6031,100 µg/mL,6.6737,85 µg/mL
O=C(CSc1nnc(-c2cccnc2)o1)Nc1ccc(Cl)cc1,6.5403,100 µg/mL,6.41,135 µg/mL
O=C(CSc1nnc(-c2cccnc2)o1)N1CCCCC1,6.229,180 µg/mL,,155 µg/mL
COc1ccc(NC(=O)CSc2nnc(-c3cccnc3)o2)cc1,6.3579,150 µg/mL,6.3879,140 µg/mL
O=C(CSc1nnc(-c2cccnc2)o1)Nc1ccc(Br)cc1,6.6379,90 µg/mL,6.4953,125 µg/mL
COc1ccc(NC(=O)CSc2nnc(Cn3nnc4ccccc43)o2)cc1,6.5185,120 µg/mL,6.5008,125 µg/mL
O=C(CSc1nnc(Cn2nnc3ccccc32)o1)Nc1ccc(Br)cc1,6.7733,75 µg/mL,6.607,110 µg/mL
O=C(CSc1nnc(Cn2nnc3ccccc32)o1)Nc1c(Cl)cccc1Cl,6.7354,80 µg/mL,6.5778,115 µg/mL
Cc1cccc(C)c1NC(=O)CSc1nnc(Cn2nnc3ccccc32)o1,6.5163,120 µg/mL,6.4816,130 µg/mL
O=C(CSc1nnc(Cn2nnc3ccccc32)o1)Nc1ccc(Cl)c(Cl)c1,6.6842,90 µg/mL,6.5416,125 µg/mL
O=C(CCSc1nnc(Cn2nnc3ccccc32)o1)Nc1ccc(Cl)cc1,6.5378,120 µg/mL,6.5378,120 µg/mL
Cc1ccc(NC(=O)CCSc2nnc(Cn3nnc4ccccc43)o2)cc1,6.4986,125 µg/mL,6.5541,110 µg/mL
O=C(CCSc1nnc(Cn2nnc3ccccc32)o1)Nc1ccc([N+](=O)[O-])cc1,6.587,110 µg/mL,6.5677,115 µg/mL
O=C(CCSc1nnc(Cn2nnc3ccccc32)o1)Nc1ccc(F)cc1,6.6968,80 µg/mL,6.5787,105 µg/mL
COc1ccc(NC(=O)CCSc2nnc(Cn3nnc4ccccc43)o2)cc1,6.6128,100 µg/mL,6.6128,100 µg/mL
O=C(CCSc1nnc(Cn2nnc3ccccc32)o1)Nc1ccc(Br)cc1,6.6618,100 µg/mL,6.7868,75 µg/mL
O=C(CCSc1nnc(Cn2nnc3ccccc32)o1)Nc1c(Cl)cccc1Cl,6.698,90 µg/mL,6.5731,120 µg/mL
Cc1cccc(C)c1NC(=O)CCSc1nnc(Cn2nnc3ccccc32)o1,6.6107,100 µg/mL,6.5693,110 µg/mL

SMILES,-logMIC [1],MIC [1],-logMIC [2],MIC [2]
O=C(CCSc1nnc(Cn2nnc3ccccc32)o1)Nc1ccc(Cl)c(Cl)c1,6.5731,120 µg/mL,6.6109,110 µg/mL
O=C(CSc1nnc(-c2cccnc2)o1)Nc1ccc([N+](=O)[O-])cc1,6.3913,145 µg/mL,6.3766,150 µg/mL
CCCNC(=O)CSc1nnc(-c2cccnc2)o1,6.3471,125 µg/mL,6.444,100 µg/mL
O=C(CSc1nnc(-c2cccnc2)o1)N1CCOCC1,6.4443,110 µg/mL,6.4065,120 µg/mL
CCCCNC(=O)CSc1nnc(-c2cccnc2)o1,6.4047,115 µg/mL,6.4877,95 µg/mL
O=C(CCSc1nnc(-c2cccnc2)o1)Nc1ccc(F)cc1,6.3605,150 µg/mL,6.3061,170 µg/mL
COc1ccc(NC(=O)CCSc2nnc(-c3cccnc3)o2)cc1,6.5514,100 µg/mL,6.4053,140 µg/mL
O=C(CCSc1nnc(-c2cccnc2)o1)Nc1ccc([N+](=O)[O-])cc1,6.4902,120 µg/mL,6.5694,100 µg/mL
O=C(CCSc1nnc(-c2cccnc2)o1)Nc1ccc(Br)cc1,,165 µg/mL,,150 µg/mL
O=C(CCSc1nnc(-c2cccnc2)o1)Nc1ccc(Cl)cc1,6.2349,80 µg/mL,6.5575,100 µg/mL
O=C(CCSc1nnc(-c2cccnc2)o1)Nc1c(Cl)cccc1Cl,6.4638,170 µg/mL,6.4877,95 µg/mL
CCCNC(=O)CCSc1nnc(-c2cccnc2)o1,6.4069,110 µg/mL,6.4445,115 µg/mL
CCCCNC(=O)CCSc1nnc(-c2cccnc2)o1,,125 µg/mL,6.4246,120 µg/mL
O=C(CCSc1nnc(-c2cccnc2)o1)N1CCOCC1,6.3718,130 µg/mL,6.3396,140 µg/mL
Cc1ccc(NC(=O)CSc2nnc(Cn3nnc4ccccc43)o2)cc1,6.5384,110 µg/mL,6.5006,120 µg/mL
O=C(CSc1nnc(Cn2nnc3ccccc32)o1)Nc1ccc([N+](=O)[O-])cc1,6.5531,115 µg/mL,6.4677,140 µg/mL
O=C(CSc1nnc(Cn2nnc3ccccc32)o1)Nc1ccc(F)cc1,6.6549,85 µg/mL,6.5843,100 µg/mL
O=C(CSc1nnc(-c2cccnc2)o1)Nc1ccc(F)cc1,6.4216,125 µg/mL,6.4046,130 µg/mL
